Source: the Kinase Knowledgebase extract (Sharma et al. 2016)

molecular target: MAPK14 (human) (UniProt Q16539); assay: Inhibition of MAPK14 Kinase Activity
Sequence (Q16539 whole entry, looked up): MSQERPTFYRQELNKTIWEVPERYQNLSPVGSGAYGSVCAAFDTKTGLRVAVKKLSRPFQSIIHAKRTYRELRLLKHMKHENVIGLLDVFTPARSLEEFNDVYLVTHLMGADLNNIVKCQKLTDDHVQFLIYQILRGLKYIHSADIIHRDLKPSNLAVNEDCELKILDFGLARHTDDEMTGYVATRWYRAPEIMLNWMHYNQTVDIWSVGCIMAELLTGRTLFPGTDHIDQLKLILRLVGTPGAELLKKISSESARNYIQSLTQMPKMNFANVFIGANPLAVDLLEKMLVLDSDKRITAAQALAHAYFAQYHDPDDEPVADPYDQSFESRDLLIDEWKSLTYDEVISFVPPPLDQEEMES

| IC50 [µM] | SMILES |
| --- | --- |
| ≤ 2 | O=c1ccc2c(ccn2CCc2ccccc2)n1-c1ccccc1 |
| ≤ 2 | N#Cc1ccccc1Cn1c(C(N)=O)cc2c1ccc(=O)n2-c1ccccc1 |
| ≤ 2 | O=c1ccc2c(ccn2Cc2ccc(F)cc2F)n1-c1ccccc1 |
| ≤ 2 | NC(=O)c1cc2c(ccc(=O)n2-c2ccccc2)n1Cc1ccc(F)c(Cl)c1 |
| ≤ 2 | CON(C)C(=O)c1cc2c(ccc(=O)n2-c2ccccc2)n1Cc1cccc(Cl)c1 |
| ≤ 2 | Cc1cc(Cn2c(C(N)=O)cc3c2ccc(=O)n3-c2ccccc2)ccc1F |
| ≤ 2 | O=c1ccc2c(ccn2Cc2cc(Cl)ccc2Cl)n1-c1ccccc1 |
| ≤ 2 | O=C(c1ccccc1)n1ccc2c1ccc(=O)n2-c1ccccc1 |
| ≤ 2 | CCOC(=O)c1cc2c(ccc(=O)n2-c2ccc(C)cc2)n1Cc1cccc(Cl)c1 |
| ≤ 2 | N#Cc1cccc(Cn2ccc3c2ccc(=O)n3-c2ccccc2)c1 |
| ≤ 2 | O=c1ccc2c(ccn2Cc2ccc(Cl)cc2)n1-c1ccccc1 |
| ≤ 2 | CCOC(=O)c1cc2c(ccc(=O)n2-c2ccccc2)n1Cc1ccc(F)c(C)c1 |
| ≤ 2 | CNC(=O)c1cc2c(ccc(=O)n2-c2ccccc2)n1Cc1cccc(Cl)c1 |
| ≤ 2 | Cc1ccc(-n2c(=O)ccc3c2cc(C(N)=O)n3Cc2cccc(Cl)c2)cc1 |
| ≤ 2 | CCOC(=O)c1cc2c(ccc(=O)n2-c2ccsc2)n1Cc1cccc(Cl)c1 |
| ≤ 2 | CCOC(=O)c1cc2c(ccc(=O)n2-c2ccccc2)n1Cc1cccc(Cl)c1 |
| ≤ 2 | O=c1ccc2c(ccn2Cc2ccc(F)cc2)n1-c1ccccc1 |
| ≤ 2 | O=c1ccc2c(ccn2Cc2cccc(Cl)c2)n1-c1ccsc1 |
| ≤ 2 | Cc1ccccc1Cn1ccc2c1ccc(=O)n2-c1ccccc1 |
| ≤ 2 | O=c1ccc2c(ccn2Cc2nc3ccccc3s2)n1-c1ccccc1 |
| ≤ 2 | O=c1ccc2c(ccn2Cc2ccccc2)n1-c1ccccc1 |
| ≤ 2 | CCOC(=O)c1cc2c(ccc(=O)n2-c2ccccc2)n1Cc1cccc(C)c1 |
| ≤ 2 | CCOC(=O)c1cc2c(ccc(=O)n2-c2ccccc2[N+](=O)[O-])n1Cc1cccc(Cl)c1 |
| ≤ 2 | CON(C)C(=O)c1cc2c(ccc(=O)n2-c2ccccc2)n1Cc1cccc(C)c1 |
| ≤ 2 | COc1cccc(Cn2ccc3c2ccc(=O)n3-c2ccccc2)c1 |
| ≤ 2 | O=c1ccc2c(ccn2Cc2ccc(Cl)c(Cl)c2)n1-c1ccccc1 |

| IC50 [µM] | SMILES |
| --- | --- |
| ≤ 2 | O=c1ccc2c(ccn2Cc2ccc(F)c(F)c2)n1-c1ccccc1 |
| ≤ 2 | NC(=O)c1cc2c(ccc(=O)n2-c2ccc3[nH]ccc3c2)n1Cc1cccc(Cl)c1 |
| ≤ 2 | O=c1ccc2c(ccn2Cc2ccc(Cl)s2)n1-c1ccccc1 |
| ≤ 2 | COc1ccc(-n2c(=O)ccc3c2ccn3Cc2ccccc2)cc1 |
| ≤ 2 | NNC(=O)c1cc2c(ccc(=O)n2-c2ccccc2)n1Cc1cccc(Cl)c1 |
| ≤ 2 | CCOC(=O)c1cc2c(ccc(=O)n2-c2ccccc2)n1Cc1ccccc1 |
| ≤ 2 | O=C(c1cc2c(ccc(=O)n2-c2ccccc2)n1Cc1cccc(Cl)c1)N1CCCC1 |
| ≤ 2 | N#Cc1cc2c(ccc(=O)n2-c2ccccc2)n1Cc1cccc(Cl)c1 |
| ≤ 2 | O=c1ccc2c(cc(S(=O)(=O)N3CCCC3)n2Cc2cccc(Cl)c2)n1-c1ccccc1 |
| ≤ 2 | CN(C)C(=O)c1cc2c(ccc(=O)n2-c2ccccc2)n1Cc1cccc(Cl)c1 |
| ≤ 2 | Cc1ccc(Cn2ccc3c2ccc(=O)n3-c2ccccc2)cc1 |
| ≤ 2 | CON(C)C(=O)c1cc2c(ccc(=O)n2-c2ccccc2)n1Cc1ccc(F)c(Cl)c1 |
| ≤ 2 | Cc1cccc(Cn2ccc3c2ccc(=O)n3-c2ccccc2)c1 |
| ≤ 2 | Cc1ccc(-n2c(=O)ccc3c2cc(C(=O)NN)n3Cc2cccc(Cl)c2)cc1 |
| ≤ 2 | CC(c1ccccc1)n1ccc2c1ccc(=O)n2-c1ccccc1 (stereo not drawn) |
| ≤ 2 | O=c1ccc2c(ccn2Cc2ccc(F)c(Cl)c2)n1-c1ccccc1 |
| ≤ 2 | Cc1cccc(Cn2c(C(=O)N3CCC[C@H]3CO)cc3c2ccc(=O)n3-c2ccccc2)c1 |
| ≤ 2 | CCOC(=O)c1cc2c(ccc(=O)n2-c2ccc3[nH]ccc3c2)n1Cc1cccc(Cl)c1 |
| ≤ 2 | N#Cc1ccc(Cn2ccc3c2ccc(=O)n3-c2ccccc2)cc1 |
| ≤ 2 | Cc1cccc(Cn2c(C(N)=O)cc3c2ccc(=O)n3-c2ccccc2)c1 |
| ≤ 2 | CCOC(=O)c1cc2c(ccc(=O)n2-c2ccccc2)n1Cc1ccc(F)c(Cl)c1 |
| ≤ 2 | NC(=O)c1cc2c(ccc(=O)n2-c2ccccc2)n1Cc1cccc(Cl)c1 |
| ≤ 2 | O=c1ccc2c(ccn2Cc2cccc(Cl)c2)n1-c1ccccc1 |
| ≤ 2 | O=c1ccc2c(ccn2Cc2cccnc2)n1-c1ccccc1 |
| ≤ 2 | O=c1ccc2c(ccn2Cc2ccncc2)n1-c1ccccc1 |
| ≤ 2 | O=c1ccc2c(ccn2Cc2c(Cl)cccc2Cl)n1-c1ccccc1 |

| SMILES | IC50 [µM] |
| --- | --- |
| O=C(c1cn(Cc2ccccc2)c2ccc(=O)n(-c3ccccc3)c12)C(F)(F)F | ≤ 2 |
